Measurements published in article PMC12412615, “Tailored SirReal-type inhibitors enhance SIRT2 inhibition through ligand stabilization and disruption of NAD^+ co-factor binding” (RSC Medicinal Chemistry, 2025).

Columns and labels:
Format in all cases: biochemical
human SIRT1 = molecular target: T1, human SIRT1 (Homo sapiens, UniProt Q96EB6); experiment: Fluorescence-based sirtuin subtype selectivity assay, SIRT1, single dose 50 μM; settings: 50 μM compound; mean, n = 2
T1 construct: purchased Reaction Biology Corporation (Malvern, USA), contract assay
T1 sequence (Q96EB6 1-747): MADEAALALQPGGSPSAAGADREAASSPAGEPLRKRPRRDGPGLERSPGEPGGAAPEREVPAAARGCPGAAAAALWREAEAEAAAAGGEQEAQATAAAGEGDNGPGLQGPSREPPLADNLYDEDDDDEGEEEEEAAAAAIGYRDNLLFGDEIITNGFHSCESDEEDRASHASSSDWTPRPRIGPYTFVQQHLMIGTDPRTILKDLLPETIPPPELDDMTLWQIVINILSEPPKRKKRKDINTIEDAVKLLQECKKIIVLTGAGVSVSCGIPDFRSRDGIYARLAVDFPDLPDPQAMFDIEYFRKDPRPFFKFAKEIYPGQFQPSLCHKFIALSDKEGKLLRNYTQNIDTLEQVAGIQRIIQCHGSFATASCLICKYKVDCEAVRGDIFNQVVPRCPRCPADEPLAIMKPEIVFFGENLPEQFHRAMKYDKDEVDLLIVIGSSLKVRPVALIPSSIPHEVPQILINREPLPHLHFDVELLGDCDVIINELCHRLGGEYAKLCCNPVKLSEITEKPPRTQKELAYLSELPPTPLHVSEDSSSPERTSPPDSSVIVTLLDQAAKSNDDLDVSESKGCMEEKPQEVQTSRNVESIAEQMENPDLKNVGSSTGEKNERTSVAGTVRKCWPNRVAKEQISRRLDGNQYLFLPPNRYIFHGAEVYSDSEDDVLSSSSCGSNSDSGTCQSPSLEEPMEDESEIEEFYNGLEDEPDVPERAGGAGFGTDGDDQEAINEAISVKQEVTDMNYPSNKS
Protocol: (§1) IC50 values against SIRT2 are given as mean with standard deviations (n = 3). Inhibition percentages at 50 μM for SIRT1, 3 and 5 are given as mean without standard deviations (n = 2)
(§2) The determination of subtype selectivity against SIRT1, 3 and 5 was performed by measuring the residual enzyme activity after treatment with the corresponding inhibitor at a fixed concentration of 50 μM and subsequent calculation of the percentage inhibition.
(§3) The determination of inhibitory activity on the corresponding sirtuin enzymes was carried out based on a fluorescence-based assay commissioned by Reaction Biology Corporation (Malvern, USA) following an internal experimental protocol. Test substances were prepared in DMSO, delivered into the respective enzyme mixture (prepared with reaction buffer: Tris-HCl, pH = 8) and incubated for 10 minutes at 30 °C. Subsequently the substrate mixture (NAD^+ and a 7-amino-4-methylcoumarin-based fluorogenic peptide substrate) was added to initiate the deacetylation reaction. After 2 hours incubation at 30 °C, 2 mM nicotinamide (universal sirtuin inhibitor, to stop the reaction) and protease-based developer (to generate fluorescence by the cleavage of 7-amino-4-methylcoumarin) was added. At 30 °C 1 hour later, the respective fluorescence was measured (extinction/emission = 360 nm/460 nm). The inhibitory effect of the test compounds is indirectly proportional to the amount of converted fluorescent substrate standardized as 100% activity of the control without inhibitor. The test substances were tested in 10-dose IC50 triplicate mode, with 3-fold serial dilution starting at 50 μM final reaction concentration and if necessary, starting at 100 μM. For each serially diluted replicate of the triplicate, an IC50 value was determined by sigmoidal curve fitting, resulting in three IC50 values, from which the mean and corresponding standard deviation were subsequently calculated. Data processing was performed based on Prism 8.0.2 software (GraphPad Software, Boston, USA). Subtype selectivity on SIRT1, SIRT3 and SIRT5 was evaluated in a single dose duplicate mode at 50 μM final test compound concentration according to previous outlined internal protocol of Reaction Biology Corporation by determining the enzyme activity of the respective sirtuins in % (no inhibitor control as 100% activity).

SIRT2 = molecular target: T2, SIRT2 (Homo sapiens, UniProt Q8IXJ6); experiment: Fluorescence-based SIRT2 deacetylation inhibition assay (Reaction Biology Corporation); set-up: purchased Reaction Biology Corporation (Malvern, USA), contract assay; settings: for IC50: fluorogenic peptide of p53 residues 379–382 (RHKK(Ac)-Fl), mean with standard deviation, n = 3
T2 sequence (Q8IXJ6 1-389): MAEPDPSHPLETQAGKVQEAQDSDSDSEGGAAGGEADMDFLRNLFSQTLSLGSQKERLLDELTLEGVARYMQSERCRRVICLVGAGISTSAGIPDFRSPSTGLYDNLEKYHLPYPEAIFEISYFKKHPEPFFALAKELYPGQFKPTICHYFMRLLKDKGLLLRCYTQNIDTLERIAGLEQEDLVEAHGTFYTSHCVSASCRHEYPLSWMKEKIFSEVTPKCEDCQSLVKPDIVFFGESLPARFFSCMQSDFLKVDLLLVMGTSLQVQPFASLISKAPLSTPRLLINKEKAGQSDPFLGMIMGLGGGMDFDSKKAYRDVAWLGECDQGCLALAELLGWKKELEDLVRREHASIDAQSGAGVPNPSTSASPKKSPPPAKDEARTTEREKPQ
Protocol: The determination of SIRT2 inhibitory activity was performed by Reaction Biology Corporation (Malvern, USA) with a fluorescence-based assay utilizing the fluorogenic peptide of p53 residues 379–382 (RHKK(Ac)-Fl). […]. […] […]. On the contrary, we observed a significant increase in potency by the introduction of halogens at the R^2 position (compounds 29–31), highlighting the importance of the position of the functional group modifications. […]. […] Additional factors such as the atomic radius and thus steric requirements of these halogens may also play a significant role in the increase in potency, where the smaller chlorine atom may experience less steric effects upon binding at the active site compared to the larger bromine and iodine atoms. […]. […] IC50 values against SIRT2 are given as mean with standard deviations (n = 3). Inhibition percentages at 50 μM for SIRT1, 3 and 5 are given as mean without standard deviations (n = 2)
as §3

human SIRT3 = molecular target: T3, human SIRT3 (Homo sapiens, UniProt Q9NTG7); experiment: Fluorescence-based sirtuin subtype selectivity assay, SIRT3, single dose 50 μM; settings: 50 μM compound; mean, n = 2
T3 construct: purchased Reaction Biology Corporation (Malvern, USA), contract assay
T3 sequence (Q9NTG7 1-399): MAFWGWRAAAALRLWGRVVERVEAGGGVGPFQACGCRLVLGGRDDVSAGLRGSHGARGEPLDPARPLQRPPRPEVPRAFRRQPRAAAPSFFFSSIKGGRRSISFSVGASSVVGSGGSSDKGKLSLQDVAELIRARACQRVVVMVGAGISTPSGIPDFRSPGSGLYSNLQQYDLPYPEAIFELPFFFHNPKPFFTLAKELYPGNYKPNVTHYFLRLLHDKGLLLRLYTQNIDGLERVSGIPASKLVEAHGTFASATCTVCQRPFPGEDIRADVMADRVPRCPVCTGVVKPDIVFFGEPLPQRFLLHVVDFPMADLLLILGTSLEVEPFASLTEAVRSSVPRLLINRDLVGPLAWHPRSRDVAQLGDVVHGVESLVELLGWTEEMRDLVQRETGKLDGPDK
Protocol: as §1, §2, §3

human SIRT5 = molecular target: T4, human SIRT5 (Homo sapiens, UniProt Q9NXA8); experiment: Fluorescence-based sirtuin subtype selectivity assay, SIRT5, single dose 50 μM; settings: 50 μM compound; mean, n = 2
T4 construct: purchased Reaction Biology Corporation (Malvern, USA), contract assay
T4 sequence (Q9NXA8 37-310): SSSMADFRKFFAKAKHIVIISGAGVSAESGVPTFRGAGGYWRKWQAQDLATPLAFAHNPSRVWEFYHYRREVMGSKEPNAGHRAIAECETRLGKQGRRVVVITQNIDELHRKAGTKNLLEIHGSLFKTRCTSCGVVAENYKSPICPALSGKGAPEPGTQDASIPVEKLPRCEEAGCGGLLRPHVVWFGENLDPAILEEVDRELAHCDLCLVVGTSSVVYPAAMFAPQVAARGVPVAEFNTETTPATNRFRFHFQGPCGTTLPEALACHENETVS
Protocol: as §1, §2, §3

| Structure (SMILES) | Inhibition of SIRT1 in %@50 μM (human SIRT1) | IC50 (SIRT2) | inhibition at 50 µM (human SIRT3) | inhibition at 50 µM (human SIRT5) | inhibition at 50 µM (human SIRT1) | Fold increase in SIRT2 potency compared to lead structure (SIRT2; 29 vs 24a, 46 vs SirReal2) |
| --- | --- | --- | --- | --- | --- | --- |
| Cc1cc(C)nc(SCC(=O)Nc2cccc(COc3ccc(NC(=O)c4cnn(C)c4)cc3Br)c2)n1 [Compound 11, N-(3-Bromo-4-((3-(2-((4,6-dimethylpyrimidin-2-yl)thio)acetamido)benzyl)oxy)phenyl)-1-methyl-1H-pyrazole-4-carboxamide] | n.i. | 81 ± 10 nM | 24% | 13% | – | – |
| Cc1cc(C)nc(SCC(=O)Nc2cccc(COc3ccc(NC(=O)c4cnn(C)c4)cc3C=O)c2)n1 [Compound 12, N-(4-((3-(2-((4,6-Dimethylpyrimidin-2-yl)thio)acetamido)benzyl)oxy)-3-formylphenyl)-1-methyl-1H-pyrazole-4-carboxamide] | – | 147 ± 13 nM | 24% | 16% | 2% | – |
| Cc1cc(C)nc(SCC(=O)Nc2cccc(COc3ccc(NC(=O)c4cnn(C)c4)cc3C#N)c2)n1 [Compound 14, N-(3-Cyano-4-((3-(2-((4,6-dimethylpyrimidin-2-yl)thio)acetamido)benzyl)oxy)phenyl)-1-methyl-1H-pyrazole-4-carboxamide] | – | 125 ± 18 nM | 35% | 2% | 6% | – |
| Cc1cc(C)nc(SCC(=O)Nc2cccc(COc3ccc(NC(=O)c4cnn(C)c4)c(Br)c3)c2)n1 [Compound 30, N-(2-Bromo-4-((3-(2-((4,6-dimethylpyrimidin-2-yl)thio)acetamido)benzyl)oxy)phenyl)-1-methyl-1H-pyrazole-4-carboxamide] | – | 54 ± 7 nM | 43% | 1% | 4% | – |
| Cc1cc(C)nc(SCC(=O)Nc2cccc(COc3ccc(NC(=O)c4cnn(C)c4)c(I)c3)c2)n1 [Compound 31, N-(4-((3-(2-((4,6-Dimethylpyrimidin-2-yl)thio)acetamido)benzyl)oxy)-2-iodophenyl)-1-methyl-1H-pyrazole-4-carboxamide] | – | 29 ± 2 nM | 22% | 12% | 5% | – |
| Cc1cc(C)nc(SCC(=O)Nc2cccc(COc3ccc(NC(=O)c4cnn(C)c4)c(C#N)c3)c2)n1 [Compound 34, N-(2-Cyano-4-((3-(2-((4,6-dimethylpyrimidin-2-yl)thio)acetamido)benzyl)oxy)phenyl)-1-methyl-1H-pyrazole-4-carboxamide] | – | 91 ± 7 nM | 31% | 4% | 23% | – |

Next, values leading:

| Inhibition of SIRT1 in %@50 μM (human SIRT1) | IC50 (SIRT2) | inhibition at 50 µM (human SIRT3) | inhibition at 50 µM (human SIRT5) | inhibition at 50 µM (human SIRT1) | Fold increase in SIRT2 potency compared to lead structure (SIRT2; 29 vs 24a, 46 vs SirReal2) | Structure (SMILES) |
| --- | --- | --- | --- | --- | --- | --- |
| – | 294 ± 17 nM | 5% | 10% | 29% | – | Cc1cc(C)nc(SCC(=O)Nc2cccc(COc3ccc(NC(=O)c4cnn(C)c4)cc3B(O)O)c2)n1 [Compound 13, (2-((3-(2-((4,6-Dimethylpyrimidin-2-yl)thio)acetamido)benzyl)oxy)-5-(1-methyl-1H-pyrazole-4-carboxamido)phenyl)boronic acid] |
| n.i. | 184 ± 9 nM | 7% | 6% | – | – | Cc1cc(C)nc(SCC(=O)Nc2cccc(COc3ccc(NC(=O)c4cnn(C)c4)c(C=O)c3)c2)n1 [Compound 32, N-(4-((3-(2-((4,6-Dimethylpyrimidin-2-yl)thio)acetamido)benzyl)oxy)-2-formylphenyl)-1-methyl-1H-pyrazole-4-carboxamide] |
| – | 202 ± 6 nM | 24% | 14% | 71% | – | Cc1cc(C)nc(SCC(=O)Nc2cccc(COc3ccc(NC(=O)c4cnn(C)c4)c(B(O)O)c3)c2)n1 [Compound 33, (5-((3-(2-((4,6-Dimethylpyrimidin-2-yl)thio)acetamido)benzyl)oxy)-2-(1-methyl-1H-pyrazole-4-carboxamido)phenyl)boronic acid] |
| – | 122 ± 8 nM | 9% | 8% | 6% | 2 fold | Cc1cc(C)nc(SCC(=O)Nc2ncc(Cc3cccc4ccc(C#N)cc34)s2)n1 [Compound 46, N-(5-((7-Cyanonaphthalen-1-yl)methyl)thiazol-2-yl)-2-((4,6-dimethylpyrimidin-2-yl)thio)acetamide] |
| n.i. | 235 ± 19 nM | 15% | 2% | – | – | Cc1cc(C)nc(SCC(=O)Nc2ncc(Cc3cccc4ccc(CC#N)cc34)s2)n1 [Compound 47, N-(5-((7-(Cyanomethyl)naphthalen-1-yl)methyl)thiazol-2-yl)-2-((4,6-dimethylpyrimidin-2-yl)thio)acetamide] |
| – | 235 ± 36 nM | 12% | 23% | 19% | – | Cc1cc(C)nc(SCC(=O)Nc2ncc(Cc3cccc4ccc(B(O)O)cc34)s2)n1 [Compound 48, (8-((2-(2-((4,6-Dimethylpyrimidin-2-yl)thio)acetamido)thiazol-5-yl)methyl)naphthalen-2-yl)boronic acid] |
